The target in this assay is T1, Human Neutrophil Elastase (HNE) (Homo sapiens, UniProt P08246).
T1 construct: Human Neutrophil Elastase (HNE) purified from serum; purchased Calbiochem 324681; host or cells: natural human material (serum)
T1 sequence (P08246 30-247 limits assumed): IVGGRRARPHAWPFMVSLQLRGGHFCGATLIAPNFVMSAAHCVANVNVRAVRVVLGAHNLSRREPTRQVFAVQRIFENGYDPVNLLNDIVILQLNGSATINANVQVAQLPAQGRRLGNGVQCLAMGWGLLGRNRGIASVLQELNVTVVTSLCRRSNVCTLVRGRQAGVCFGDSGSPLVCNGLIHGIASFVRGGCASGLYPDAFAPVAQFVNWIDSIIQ
The assay is described as follows: Human Neutrophil Elastase Quenched-FRET Assay. Type of assay: biochemical. To be noted: HNE purified from serum; substrate MeOSuc-AAPV-AMC; 15 min preincubation, 30 min incubation at room temperature; read-out: Inhibition of Human Neutrophil Elastase IC50. The protocol:
Human Neutrophil Elastase Quenched-FRET Assay
The assay uses Human Neutrophil Elastase (HNE) purified from serum (Calbiochem art. 324681; Ref. Baugh, R. J. et al., 1976, Biochemistry. 15, 836-841). HNE was stored in 50 mM NaOAc, 200 mM NaCl, pH 5.5 with added 30% glycerol at −20° C. The protease substrate used was Elastase Substrate V Fluorogenic, MeOSuc-AAPV-AMC (Calbiochem art. 324740; Ref. Castillo, M. J. et al., 1979, Anal. Biochem. 99, 53-64). The substrate was stored in DMSO at −20° C. The assay additions were as follows: Test compounds and controls were added to black 96-well flat-bottom plates (Greiner 655076), 1 μL in 100% DMSO, followed by 30 μL HNE in assay buffer with 0.01% TritonX-100. The assay buffer constitution was: 100 mM Tris (pH 7.5) and 500 mM NaCl. The enzyme and the compounds were incubated at room temperature for 15 minutes. Then 30 μl substrate in assay buffer was added. The assay was stopped after 30 minutes incubation at room temperature by adding 60 μl stop solution (140 mM acetic acid, 200 mM sodium monochloroacetate, 60 mM sodium acetate, pH 4.3). Fluorescence was measured on a Wallac 1420 Victor 2 instrument at settings: Excitation 380 nm, Emission 460 nm. IC50 values were determined using Xlfit curve fitting using model 205.
As for `O=C(NCc1ccc(F)c(F)c1)c1cc2ccccc2n(-c2cccc(C(F)(F)F)c2)c1=O` [Example 2.26, N-(3,4-Difluorobenzyl)-2-oxo-1-[3-(trifluoromethyl)phenyl]-1,2-dihydroquinoline-3-carboxamide], the IC50 is 500 nM. For the molecule `O=C(NCC1COc2ccccc2O1)c1cc2ccccc2n(-c2cccc(C(F)(F)F)c2)c1=O` (stereo not drawn) [Example 2.51, N-(2,3-Dihydro-1,4-benzodioxin-2-ylmethyl)-2-oxo-1-[3-(trifluoromethyl)phenyl]-1,2-dihydroquinoline-3-carboxamide], the IC50 was 390 nM.

As to `CC(=O)Nc1ccc(CNC(=O)c2cc3ccccc3n(-c3cccc(C(F)(F)F)c3)c2=O)cc1` [Example 2.66, N-[4-(Acetylamino)benzyl]-2-oxo-1-[3-(trifluoromethyl)phenyl]-1,2-dihydroquinoline-3-carboxamide], the 50% inhibitory concentration (IC50) is 320 nM.

What is called IC50 is the concentration needed to halve the response being measured.

Values taken from US20070010551A1, “Quinoline derivatives as neutrophil elastase inhibitors and their use” (priority 2003, published 2007).
